{
  "source": "patent US20100204203A1",
  "about": "“Chemical Compounds 637: Pyridopyrimidinediones as PDE4 Inhibitors” (priority 2007, published 2010)",
  "data": [
    {"molecular_target": "recombinant Human Phosphodiesterase B2 (PDE4B2) (Homo sapiens, UniProt Q07343)", "sequence (Q07343 1-564 isoform Q07343-2)": "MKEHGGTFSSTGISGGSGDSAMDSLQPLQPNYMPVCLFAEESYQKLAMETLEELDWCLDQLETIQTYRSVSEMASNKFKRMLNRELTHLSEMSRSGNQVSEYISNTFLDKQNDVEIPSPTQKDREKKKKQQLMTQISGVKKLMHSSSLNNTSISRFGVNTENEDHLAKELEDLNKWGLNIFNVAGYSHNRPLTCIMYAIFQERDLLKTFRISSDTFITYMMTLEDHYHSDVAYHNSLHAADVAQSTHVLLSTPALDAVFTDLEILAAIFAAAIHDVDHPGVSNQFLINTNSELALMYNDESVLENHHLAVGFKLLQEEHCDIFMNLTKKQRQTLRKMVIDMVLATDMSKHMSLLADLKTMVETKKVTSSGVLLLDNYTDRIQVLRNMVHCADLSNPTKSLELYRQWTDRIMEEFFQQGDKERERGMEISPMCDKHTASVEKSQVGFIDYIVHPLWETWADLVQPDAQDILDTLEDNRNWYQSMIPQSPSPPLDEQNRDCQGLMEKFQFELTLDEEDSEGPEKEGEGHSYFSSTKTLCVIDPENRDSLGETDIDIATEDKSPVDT", "assay": "Human Phosphodiesterase B2 Radiometric Assay (yttrium silicate SPA beads, [3H]cyclic AMP)", "format": "biochemical", "details": "recombinant human PDE4B2, radiometric SPA assay, 8 nM [3H]cyclic AMP; read-out: PDE4B2 pIC50 (converted)", "procedure,_shortened": "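Compounds were preincubated 30 min at 30 °C with 0.1 mg/mL PDE4B2 in 50 mM HEPES pH 7.5, 8.3 mM MgCl2, 1.7 mM EGTA, 0.01% Brij 35. Then 8 nM [3H]cAMP was added for 20 min, stopped with yttrium silicate SPA beads plus 18 mM ZnSO4 capturing product 5′AMP; pIC50 by curve fitting.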", "units": {"IC50": "nM"}, "values": [
      {"smiles": "O=C(N[C@H]1CC[C@@H](n2c(=O)c3cc(F)cnc3n(-c3cccc(-c4ccc(CN5CCSCC5)cc4)c3)c2=O)CC1)c1cn2c(n1)CCCC2", "note": "[Example 135, N-{cis-4-[6-fluoro-2,4-dioxo-1-[4′-(thiomorpholin-4-ylmethyl)biphenyl-3-yl]-1,4-dihydropyrido[2,3-d]pyrimidin-3(2H)-yl]cyclohexyl}-5,6,7,8-tetrahydroimidazo[1,2-a]pyridine-2-carboxamide]", "IC50": 0.00316},
      {"smiles": "CN(Cc1ccc(-c2cccc(-n3c(=O)n([C@H]4CC[C@@H](NC(=O)c5cn6c(n5)CCCC6)CC4)c(=O)c4cc(F)cnc43)c2)cc1)C(C)(C)C", "note": "[Example 136, N-{cis-4-[1-(4′-{[tert-butyl(methyl)amino]methyl}biphenyl-3-yl)-6-fluoro-2,4-dioxo-1,4-dihydropyrido[2,3-d]pyrimidin-3(2H)-yl]cyclohexyl}-5,6,7,8-tetrahydroimidazo[1,2-a]pyridine-2-carboxamide]", "IC50": 0.0316},
      {"smiles": "CN(C)C(=O)CN1CCN(Cc2ccc(-c3cccc(-n4c(=O)n([C@H]5CC[C@@H](NC(=O)c6cn7c(n6)CCCC7)CC5)c(=O)c5cc(F)cnc54)c3)cc2)CC1", "note": "[Example 137, N-{cis-4-[1-[4′-({4-[2-(dimethylamino)-2-oxoethyl]piperazin-1-yl}methyl)biphenyl-3-yl]-6-fluoro-2,4-dioxo-1,4-dihydropyrido[2,3-d]pyrimidin-3(2H)-yl]cyclohexyl}-5,6,7,8-tetrahydroimidazo[1,2-a]pyridine-2-carboxamide]", "IC50": 0.0126},
      {"smiles": "C[C@@H]1CN(Cc2ccc(-c3cccc(-n4c(=O)n([C@H]5CC[C@@H](NC(=O)c6cn7c(n6)CCCC7)CC5)c(=O)c5cc(F)cnc54)c3)cc2)C[C@H](C)O1", "note": "[Example 138, N-{cis-4-[1-(4′-{[(2R,6S)-2,6-dimethylmorpholin-4-yl]methyl}biphenyl-3-yl)-6-fluoro-2,4-dioxo-1,4-dihydxopyrido[2,3-d]pyrimidin-3(2H)-yl]cyclohexyl}-5,6,7,8-tetrahydroimidazo[1,2-a]pyridine-2-carboxamide]", "IC50": 0.00316},
      {"smiles": "CN(Cc1ccc(-c2cccc(-n3c(=O)n([C@H]4CC[C@@H](NC(=O)C5(N(C)C)CC5)CC4)c(=O)c4cc(F)cnc43)c2)cc1)C(C)(C)C", "note": "[Example 207, N-{cis-4-[1-(4′-{[tert-butyl(methyl)amino]methyl}biphenyl-3-yl)-6-fluoro-2,4-dioxo-1,4-dihydropyrido[2,3-d]pyrimidin-3(2H)-yl]cyclohexyl}-1-(dimethylamino)cyclopropanecarboxamide]", "IC50": 0.316},
      {"smiles": "CCCN1CCN(Cc2ccc(-c3cccc(-n4c(=O)n([C@H]5CC[C@@H](NC(=O)C6(N(C)C)CC6)CC5)c(=O)c5cc(F)cnc54)c3)cc2)CC1", "note": "[Example 208, 1-(dimethylamino)-N-{cis-4-[6-fluoro-2,4-dioxo-1-{4′-[(4-propylpiperazin-1-yl)methyl]biphenyl-3-yl}-1,4-dihydropyrido[2,3-d]pyrimidin-3(2H)-yl]cyclohexyl} cyclopropanecarboxamide]", "IC50": 0.0126},
      {"smiles": "C[C@@H]1CN(Cc2ccc(-c3cccc(-n4c(=O)n([C@H]5CC[C@@H](NC(=O)C6(N(C)C)CC6)CC5)c(=O)c5cc(F)cnc54)c3)cc2)C[C@H](C)O1", "note": "[Example 209, 1-(dimethylamino)-N-{cis-4-[1-(4′-{[(2R,6S)-2,6-dimethylmorpholin-4-yl]methyl}biphenyl-3-yl)-6-fluoro-2,4-dioxo-1,4-dihydropyrido[2,3-d]pyrimidin-3(2H)-yl]cyclohexyl} cyclopropanecarboxamide]", "IC50": 0.00631},
      {"smiles": "CN(C)C1(C(=O)N[C@H]2CC[C@@H](n3c(=O)c4cc(F)cnc4n(-c4cccc(-c5ccc(CN6CCN(C7CCCC7)CC6)cc5)c4)c3=O)CC2)CC1", "note": "[Example 210, N-{cis-4-[1-{4′-[(4-cyclopentylpiperazin-1-yl)methyl]biphenyl-3-yl}-6-fluoro-2,4-dioxo-1,4-dihydropyrido[2,3-d]pyrimidin-3(2H)-yl]cyclohexyl}-1-(dimethylamino)cyclopropane-carboxamide]", "IC50": 0.02},
      {"smiles": "CN(C)C1(C(=O)N[C@H]2CC[C@@H](n3c(=O)c4cc(F)cnc4n(-c4cccc(-c5ccc(CN6CCN(CCO)CC6)cc5)c4)c3=O)CC2)CC1", "note": "[Example 211, 1-(dimethylamino)-N-{cis-4-[6-fluoro-1-(4′-{[4-(2-hydroxyethyl)piperazin-1-yl]methyl}biphenyl-3-yl)-2,4-dioxo-1,4-dihydropyrido[2,3-d]pyrimidin-3(2H)-yl]cyclohexyl}cyclopropanecarboxamide]", "IC50": 0.0158},
      {"smiles": "CN(C)C1(C(=O)N[C@H]2CC[C@@H](n3c(=O)c4cc(F)cnc4n(-c4cccc(-c5ccc(CN6CCN(CC(=O)N7CCOCC7)CC6)cc5)c4)c3=O)CC2)CC1", "note": "[Example 212, 1-(dimethylamino)-N-{cis-4-[6-fluoro-1-(4′-{[4-(2-morpholin-4-yl-2-oxoethyl)piperazin-1-yl]methyl}biphenyl-3-yl)-2,4-dioxo-1,4-dihydropyrido[2,3-d]pyrimidin-3(2H)-yl]cyclohexyl} cyclopropanecarboxamide]", "IC50": 0.0126},
      {"smiles": "CC(=O)N1CCN(Cc2ccc(-c3cccc(-n4c(=O)n([C@H]5CC[C@@H](NC(=O)c6cc(C)n(C)n6)CC5)c(=O)c5cc(F)cnc54)c3)cc2)CC1", "note": "[Example 213, N-{cis-4-[1-{4′-[(4-acetylpiperazin-1-yl)methyl]biphenyl-3-yl}-6-fluoro-2,4-dioxo-1,4-dihydropyrido[2,3-d]pyrimidin-3(2H)-yl]cyclohexyl}-1,5-dimethyl-1H-pyrazole-3-carboxamide]", "IC50": 0.0158},
      {"smiles": "Cc1cc(C(=O)N[C@H]2CC[C@@H](n3c(=O)c4cc(F)cnc4n(-c4cccc(-c5ccc(CN6CCN(c7ccccn7)CC6)cc5)c4)c3=O)CC2)nn1C", "note": "[Example 214, N-{cis-4-[6-fluoro-2,4-dioxo-1-{4′-[(4-pyridin-2-ylpiperazin-1-yl)methyl]biphenyl-3-yl}-1,4-dihydropyrido[2,3-d]pyrimidin-3(2H)-yl]cyclohexyl}-1,5-dimethyl-1H-pyrazole-3-carboxamide]", "IC50": 0.0251},
      {"smiles": "Cc1cc(C(=O)N[C@H]2CC[C@@H](n3c(=O)c4cc(F)cnc4n(-c4cccc(-c5ccc(CN6CCN(C7CCCC7)CC6)cc5)c4)c3=O)CC2)nn1C", "note": "[Example 215, N-{cis-4-[1-{4′-[(4-cyclopentylpiperazin-1-yl)methyl]biphenyl-3-yl}-6-fluoro-2,4-dioxo-1,4-dihydropyrido[2,3-d]pyrimidin-3(2H)-yl]cyclohexyl}-1,5-dimethyl-1H-pyrazole-3-carboxamide]", "IC50": 0.0316},
      {"smiles": "Cc1cc(C(=O)N[C@H]2CC[C@@H](n3c(=O)c4cc(F)cnc4n(-c4cccc(-c5ccc(CN6CCN(CC(=O)N(C)C)CC6)cc5)c4)c3=O)CC2)nn1C", "note": "[Example 216]", "IC50": 0.0126},
      {"smiles": "COCCN(C)Cc1ccc(-c2cccc(-n3c(=O)n([C@H]4CC[C@@H](NC(=O)c5cc(C)n(C)n5)CC4)c(=O)c4cc(F)cnc43)c2)cc1", "note": "[Example 217, N-{cis-4-[6-fluoro-1-(4′-{[(2-methoxyethyl)(methyl)amino]methyl}biphenyl-3-yl)-2,4-dioxo-1,4-dihydropyrido[2,3-d]pyrimidin-3(2H)-yl]cyclohexyl}-1,5-dimethyl-1H-pyrazole-3-carboxamide]", "IC50": 0.0316}
    ]}
  ]
}
